# In patent publication US20140351961A1, “COMPOSITIONS AND METHODS FOR TREATMENT OF METASTATIC CANCER” (priority 2011, published 2014):
# Residues, ends and D or L forms follow the SMILES beside them. *: point of attachment. Cbz = O=C(OCc1ccccc1)*
# B1: CH101: cocktail of two dsRNA molecules, dsRNA SEQ ID NO:8/SEQ ID NO:9 and dsRNA SEQ ID NO:10/SEQ ID NO:11, blocking Hsp27 (nucleic acid)
# chain 1: AAGGACGAGCATGGCTACATC
# chain 2: GATGTAGCCATGCTCGTCCTT
# chain 3: CACAGCCGCCTCTTCGATCAA
# chain 4: TTGATCGAAGAGGCGGCTGTG
# modifications: two duplexes cocktail, further chemistry not given here
# How the values were obtained:
# [1] = system: IFN-γ; experiment: In vitro cross-presentation assay (IFN-γ release by B3Z cells); assay type: cell-based, mouse; conditions: Hsp25-siRNA- and control-siRNA-treated BMDC; 10 μM
# [2] = system: Panc-1 cells; experiment: MTS cytotoxicity assay, Panc-1 cells pre-treated with control or CH101; assay type: cell-based; conditions: Panc-1, weakly metastatic pancreatic cell, 48 h control or CH101 pre-treatment, then 72 h drug
# Description: FIG. 7. Combining CH101 with oxaliplatin synergistically functions to reduce the IC50 in the weakly metastatic pancreatic cell Panc-1. Panc-1 cells (10^6) were plated in 96-well plates and either pre-treated with control (top panel) or CH101 (bottom panel) for 48 h in a 37 degree C incubator. Panc-1 cells were then treated with various doses of oxaliplatm and further incubated for 72 hours. Cytotoxicity was measured using the classical MTS assay.
# [3] = system: AsPC1 cells; experiment: MTS cytotoxicity assay, AsPC1 cells pre-treated with control or CH101; assay type: cell-based; conditions: Homo sapiens, AsPC1, highly metastatic pancreatic cell, 48 h control or CH101 pre-treatment, then 72 h drug
# Description: FIG. 8A-B. Combining CH101 with oxaliplatm synergistieally functions to reduce the IC50 in the highly agreesive, highly metastatic pancreatic cell, AsPC1, AsPC1 cells (10^6) were plated in 96-well plates and either pre-treated with control (top panel) or CH101 (bottom panel) for 48 hrs in a 37 degree C incubator. AsPC1 cells were then treated with various doses of oxaliplatm (A) or irlootecan (B) and further incubated for 72 h. Cytotoxicity was measured using the classical MTS assay.
# [4] = system: MDA-MB-231, AsPC1, MCF7, Panc-1; experiment: CH101 against highly metastatic versus non- or weakly metastatic cancers; assay type: cell-based; conditions: MDA-MB-231 and AsPC1 versus MCF7 and Panc-1
molecule,measurement,setting,value
CC(C)C[C@@H](C=O)NC(=O)[C@H](CC(C)C)NC(=O)[C@H](CC(C)C)NC(=O)OCc1ccccc1 [MG-132] (Cbz-Leu-Leu-Leu-aldehyde),IFN-γ released by B3Z cells after proteasome inhibitor pre-treatment,[1],significantly reduced the concentration of released IFN-γ
O=C1[O][Pt]2([NH][C@@H]3CCCC[C@H]3[NH]2)[O]C1=O [oxaliplatin],IC50,[2],23 µM
CCc1c2c(nc3ccc(OC(=O)N4CCC(N5CCCCC5)CC4)cc13)-c1cc3c(c(=O)n1C2)COC(=O)[C@]3(O)CC [irinotecan],IC50,[3],36.8 µM
B1,relative effectiveness by metastatic type of cancer,[4],more effective against highly metastatic cancers
